Laboratory results from patent US20240075087A1, “COMPOSITIONS AND METHODS COMPRISING HEMP EXTRACT FOR THE TREATMENT OF ANIMALS IN NEED” (Portland Technology Holdings LLC, priority 2021, published 2024).
Converted amounts (≈) assume the structure as drawn.

How the values were obtained:
[1] = test system: CMT12 mammary gland carcinoma cell line; assay: 48 hours MTT proliferation assay, CMT12; format: cell-based, canine; details: pure compound
Protocol: (§1) 3-(4,5-Dimethylthaizol-2-yl)-2,5-diphenyltetrazolium bromide (MTT) assays are performed on all previously described cell lines; CMT12, HMPOS, D17, Abrams and 17-71. […] Cells are treated with vehicle (methanol or ethanol/DMSO mix) or various concentrations of the CBD, CBDA or CBD-rich hemp extract ranging from 0.42 to 20 μg/mL in serial dilution for 48 hours. MTT assays are performed after 48 hours of treatment by adding 20 μL of MTT dye ([…] filtered 5 mg/mL in phosphate-buffered saline [PBS]) to each well and incubating at 37° C. in 5% CO2 for 2 hours. The media is then aspirated, washed once with 200 μL of PBS and then solubilized in 200 μL of ethanol. Immediate analysis of the optical density of each well is performed using a spectrophotometric plate reader (Epoch; Biotek, Winooski, Vermont) at a wavelength of 570 nm as previously described (e.g., Vega-Avila E and Pugsley M K, An overview of colorimetric assay methods used to assess survival or proliferation of mammalian cells, Proc West Pharmacol Soc., 2011, 54, pp. 10-14 which is incorporated herein by reference in its entirety). The percent proliferating cells of control for each concentration is averaged and reported as a mean+/—SD from triplicate wells over three experiments.
(§2) For CBD, CBDA and hemp extract concentrations needed to obtain a 50% inhibition of cell proliferation (IC50) are then calculated across experiments by Probit analysis using XLFit5 software (IDBS, Guildford, United Kingdom) for reporting the results for each cell line.

[2] = test system: 17-71 B cell lymphoma cell line; assay: 48 hours MTT proliferation assay, 17-71; format: cell-based, canine; details: pure compound
Protocol: as §1, §2

[3] = test system: CMT12 cells; assay: Trypan blue exclusion assay, CMT12; format: cell-based, canine; details: 48 hours, vehicle control 3±1%
Protocol: The trypan blue exclusion assay is performed on canine primary dermal fibroblasts (CDF) because of the slow rate of proliferation and low metabolic activity of these normal canine cells, precluding productive MTT assays. The effects of CBD treatments are compared with the results obtained on the 17-71, CMT12 and D17 cell lines for comparative purposes. For the CDF cells, applied cell extracellular matrix (ABM) is applied overnight to 24-well tissue culture-treated plates (Applied Biological Materials [ABM], Richmond, BC, Canada). For all cell lines, cells are plated at a density of 5×10^3 cells per well and incubated until 60% confluent before treatment with methanol vehicle control, 3.75, 7.5, and 15 μg/mL of CBD to cells for 48 hours. Cells are then trypsinized, collected and centrifuged at 1900 g for 10 minutes. With the exception of the 17-71 cell line, cells are detached with Accumax (Invitrogen, Carlsbad, California). The cell pellet is resuspended in 0.1% trypan blue (Sigma Aldrich, St Louis, Missouri) in PBS solution, loaded on a Cell Countess disposable cell counting slide with automatic counting of all positively stained cells in the Countess II Cell Counter under identical settings for each cell line (Invitrogen; ThermoFisher Scientific, Carlsbad, California) using the same parameters for each cell line. All treatments are performed in triplicate and the percent of viable cells are averaged.

[4] = test system: Abrams osteosarcoma cell line; assay: 48 hours MTT proliferation assay, Abrams; format: cell-based, canine; details: pure compound
Protocol: as §1, §2

[5] = target: T1, CYP2D15 (Canis lupus familiaris, UniProt Q29473); assay: CYP2D15 activity inhibition in pooled dog liver microsomes; format: in vitro ADME; details: no preincubation vs 20 min preincubation, 10 μM
T1 construct: P450-specific marker activities in pooled dog liver microsomes; from tissue; host or cells: pooled dog liver microsomes
T1 sequence (Q29473 1-500): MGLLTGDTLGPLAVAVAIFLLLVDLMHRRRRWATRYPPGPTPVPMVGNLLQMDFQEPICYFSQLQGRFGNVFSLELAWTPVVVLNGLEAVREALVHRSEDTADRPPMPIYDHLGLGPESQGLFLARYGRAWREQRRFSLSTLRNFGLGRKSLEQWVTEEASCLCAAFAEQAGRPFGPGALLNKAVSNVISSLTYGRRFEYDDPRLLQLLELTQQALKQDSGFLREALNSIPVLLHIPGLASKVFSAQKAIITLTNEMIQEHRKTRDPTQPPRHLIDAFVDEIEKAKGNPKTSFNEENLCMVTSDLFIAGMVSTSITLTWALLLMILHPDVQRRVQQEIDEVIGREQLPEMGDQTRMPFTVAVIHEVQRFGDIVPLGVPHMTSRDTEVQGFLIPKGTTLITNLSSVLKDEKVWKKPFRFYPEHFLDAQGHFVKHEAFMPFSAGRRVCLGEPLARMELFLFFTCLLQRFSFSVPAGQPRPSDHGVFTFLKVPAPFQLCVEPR
Protocol: Inhibition potency (i.e. IC50) is determined by measuring the decrement in metabolism of P450-specific marker activities in pooled dog liver microsomes with increasing concentrations of CBD, CBDA, and hemp extracts. P450-specific markers include bupropion 6-hydroxylation (CYP2B11), dextromethorphan 0-demethylation (CYP2D15) and omeprazole sulfoxidation (CYP3A12). IC50 values are determined both with and without preincubation of liver microsomes with potential inhibitor to evaluate whether there is mechanism-based time-dependent inhibition.
The following parameters are assessed: (1) the rates of CBD and CBDA metabolism by dog liver microsomes and by 11 recombinant canine P450 enzymes; (2) the predicted percent contribution of each P450 to total CBD and CBDA metabolism in dog liver; and (3) IC50 values for inhibition of CYP2B11, CYP2D15 and CYP3A12 metabolism in dog liver, both with and without inhibitor preincubation.

[6] = Canis lupus familiaris, read-out: IC50 (Probit)

Compound: C=C(C)[C@@H]1CCC(C)=C[C@H]1c1c(O)cc(CCCCC)cc1O [CBD, cannabidiol]
- IC50 [1, 6]: 3.5 µg/mL (≈ 11.1 µM)
- concentrations that significantly diminished proliferation vs vehicle control ([1]; P<0.05): ≥ 2.5 µg/mL
- IC50 ([2]; Canis lupus familiaris, B-cell, read-out: IC50 (Probit)): 2.5 µg/mL (≈ 7.95 µM)
- concentrations that significantly diminished proliferation vs vehicle control ([2]; P<0.05): ≥ 2.5 µg/mL
- percent trypan blue positive cells ([3]; 3.75 μg/mL CBD): 4±2%
- percent trypan blue positive cells ([3]; 7.5 μg/mL CBD): 9±3%
- percent trypan blue positive cells ([3]; 15 μg/mL CBD): 87%±8%
- IC50 [4, 6]: 4.1 µg/mL (≈ 13 µM)
- concentrations that significantly diminished proliferation vs vehicle control ([4]; P<0.05): ≥ 5 µg/mL
- time-dependent inhibition (TDI) [5]: showed time-dependent inhibition (TDI)
